Results: US7858349B2, “Anti-cancer compounds” (The Regents of the University of Colorado, priority 1999, dated 2010)
Like-named read-outs stand apart in the source and are kept apart here.

Test system: SCLC strain SHP-77
Experiment: MTT assay for cell survival, SCLC SHP-77 in vitro
Type: cell-based, human
Details: ED50 for killing of SCLC strain SHP-77 in vitro, 4 days, 0 = no detectable activity

SMILES	IC50 (read-out: SHP-77 In vitro IC50) [µM]	IC50 (read-out: SCLC SHP-77 IC50) [µM]
O=C(C=Cc1c(F)c(F)c(F)c(F)c1F)NC(Cc1ccc(F)cc1)C(=O)N1CCN(c2ccccn2)CC1 (stereo not drawn) [Analog M-1164, F5c-PFF-Pypz]	14	
CC1(C)CC(NC(=O)[C@H](Cc2ccc(C#N)cc2)NC(=O)C(C2CCCCC2)C2CCCCC2)CC(C)(C)N1 [Analog M-1516, Dca-PCNF-Atmp]		11
CC1CN(C(=O)C(Cc2ccc(OCc3c(Cl)cccc3Cl)cc2)NC(=O)C2CCn3c(C(=O)c4ccccc4)ccc32)CC(C)N1Cc1ccccc1 (stereo not drawn) [Analog M-1664, Ktlc-OC2Y-cDmbp]		> 60
CC1(C)CC(NC(=O)C(Cc2ccc(OCc3c(Cl)cccc3Cl)cc2)NC(=O)CCCCC2SCC3NC(=O)NC32)CC(C)(C)N1 (stereo not drawn) [Analog M-1436, Biot-OC2Y-Atmp]		> 60
O=C(NC(Cc1ccc(OCc2c(Cl)cccc2Cl)cc1)C(=O)N1CCN(Cc2c(F)c(F)c(F)c(F)c2F)CC1)C(=Cc1ccccc1)c1ccccc1 (stereo not drawn) [Analog M-1734, Pcn-OC2Y-Pipz(F5b)]		24
CC1(C)CC(NC(=O)C(Cc2ccc(OCc3c(Cl)cccc3Cl)cc2)NC(=O)Cc2cccc3ccccc23)CC(C)(C)N1 (stereo not drawn) [Analog M-1708, 1Nala-OC2Y-Atmp]		7.2
CC1(C)CC(NC(=O)C(Cc2ccc(OCc3c(Cl)cccc3Cl)cc2)NC(=O)Cc2ccc3ccccc3c2)CC(C)(C)N1 (stereo not drawn) [Analog M-1710, 2Nala-OC2Y-Atmp]		1.7
CC1(C)CC(NC(=O)C(Cc2ccc(F)cc2)NC(=O)C(=Cc2ccccc2)c2ccccc2)CC(C)(C)N1 (stereo not drawn) [Analog M-1788, Pcn-PFF-Atmp]		2.3
CC1(C)CC(NC(=O)C(Cc2ccc(C#N)cc2)NC(=O)CCCc2c[nH]c3ccccc23)CC(C)(C)N1 (stereo not drawn) [Analog M-1476, 3Ibu-PCNF-Atmp]		> 60
CC1(C)CC(NC(=O)C(CCc2ccccc2)NC(=O)C=Cc2c(F)c(F)c(F)c(F)c2F)CC(C)(C)N1 (stereo not drawn) [Analog M-1176, F5c-hPhe-Atmp]	14	
CC1(C)CC(NC(=O)C(Cc2ccc(OP(=O)(O)OCc3ccccc3)cc2)NC(=O)C=Cc2c(F)c(F)c(F)c(F)c2F)CC(C)(C)N1 (stereo not drawn) [Analog M-1080, F5c-OBPY-Atmp]	> 60	
O=C([C@H](Cc1ccc(OCc2c(Cl)cccc2Cl)cc1)NC(=O)C12CC3CC(CC(C3)C1)C2)N1CCN(c2ncccn2)CC1 [Analog M-1680, Aca-OC2Y-Pmpz]		33
CC1(C)CC(NC(=O)C(Cc2ccc(OCc3c(Cl)cccc3Cl)cc2)NC(=O)C(c2ccc(Cl)cc2)c2ccc(Cl)cc2)CC(C)(C)N1 (stereo not drawn) [Analog M-1754, Bcpa-OC2Y-Atmp]		1.5
CC1(C)CC(NC(=O)C(Cc2ccc(OCc3c(Cl)cccc3Cl)cc2)NC(=O)C(F)(F)C(F)(F)C(F)(F)C(=O)O)CC(C)(C)N1 (stereo not drawn) [M-1098 #2, CHFB-OC2Y-Atmp]	6.8	
CC1(C)CC(NC(=O)C(NC(=O)c2ccc(B(O)O)cc2)C2Cc3ccccc3C2)CC(C)(C)N1 (stereo not drawn) [Analog M-1374, Bbz-Igl-Atmp]		> 60
O=C(NC1CCN(Cc2ccccc2)CC1)[C@H](Cc1ccc(OCc2c(Cl)cccc2Cl)cc1)NC(=O)C12CC3CC(CC(C3)C1)C2 [Analog M-1678, Aca-OC2Y-Abzp]		7.8
CN1CCN(CCCNC(=O)[C@H](Cc2ccc(OCc3c(Cl)cccc3Cl)cc2)NC(=O)C2CCn3c(C(=O)c4ccccc4)ccc32)CC1 (stereo partly drawn) [Analog M-1674, Ktlc-OC2Y-Amp]		3.2
CC1(C)CC(NC(=O)C(Cc2ccc(OCc3c(Cl)cccc3Cl)cc2)NC(=O)CC=Cc2ccccc2)CC(C)(C)N1 (stereo not drawn) [Analog M-1780, Saa-OC2Y-Atmp]		1.8
CC1(C)CC(NC(=O)[C@H](Cc2ccc(C#N)cc2)NC(=O)c2cnccn2)CC(C)(C)N1 [Analog M-1524, 2Pyz-PCNF-Atmp]		> 60
CC1(C)CC(NC(=O)C(Cc2ccc(C#N)cc2)NC(=O)COc2c(F)c(F)c(F)c(F)c2F)CC(C)(C)N1 (stereo not drawn) [Analog M-1488, F5po-PCNF-Atmp]		> 60

SMILES	IC50 (read-out: SHP-77 In vitro IC50) [µM]	IC50 (read-out: SCLC SHP-77 IC50) [µM]
CN1CCN(CCCNC(=O)C(Cc2ccc(OCc3c(Cl)cccc3Cl)cc2)NC(=O)c2ccc3c(c2)C(=O)c2ccccc2C3=O)CC1 (stereo not drawn) [Analog M-1702, Aq2c-OC2Y-Amp]		3.6
CCC(C(=O)NC(Cc1ccc(OCc2c(Cl)cccc2Cl)cc1)C(=O)NC1CC(C)(C)NC(C)(C)C1)C1CCCCC1 (stereo not drawn) [Analog M-1746, Chbu-OC2Y-Atmp]		1.6
CC(C)CC(NC(=O)OCC1c2ccccc2-c2ccccc21)C(=O)NC1CC(C)(C)NC(C)(C)C1 (stereo not drawn) [Analog M-1798, Fmoc-Leu-Atmp]		7.6
O=C(c1ccccc1)c1ccc2n1CCC2C(=O)N[C@@H](Cc1ccc(OCc2c(Cl)cccc2Cl)cc1)C(=O)NC1CCN(Cc2ccccc2)CC1 (stereo partly drawn) [Analog M-1668, Ktlc-OC2Y-Abzp]		4.6
CC1(C)CC(NC(=O)C(Cc2ccc(OCc3c(Cl)cccc3Cl)cc2)NC(=O)c2cccnc2Cl)CC(C)(C)N1 (stereo not drawn) [Analog M-1714, 2Cln-OC2Y-Atmp]		4
O=C(C=Cc1c(F)c(F)c(F)c(F)c1F)NC(Cc1ccc(I)cc1)C(=O)N(Cc1ccccn1)Cc1ccccn1 (stereo not drawn) [Analog M-1256, F5c-PIF-Dpic]	13	
CC(C)(C)CC(=O)NC(Cc1ccc(OCc2c(Cl)cccc2Cl)cc1)C(=O)NC1CC(C)(C)NC(C)(C)C1 (stereo not drawn) [Analog M-1748, tBua-OC2Y-Atmp]		7.1
O=C(C=Cc1c(F)c(F)c(F)c(F)c1F)NC(Cc1ccc(F)cc1)C(=O)N1CCN(c2ncccn2)CC1 (stereo not drawn) [Analog M-1162, F5c-PFF-Pmpz]	15	
O=C(/C=C/c1c(F)c(F)c(F)c(F)c1F)N[C@@H](Cc1ccc(OCc2c(Cl)cccc2Cl)cc1)C(=O)N1CCCN(Cc2ccccc2)CC1 [Analog M-1606, F5c-OC2Y-Bhp]		17
CC1(C)CC(NC(=O)C(Cc2ccc(OCc3c(Cl)cccc3Cl)cc2)NC(=O)c2cccnc2)CC(C)(C)N1 (stereo not drawn) [Analog M-1704, Pyrc-OC2Y-Atmp]		25
O=C(CCCC[C@@H]1SC[C@@H]2NC(=O)N[C@@H]21)N[C@@H](Cc1ccc(OCc2c(Cl)cccc2Cl)cc1)C(=O)N1CCN(C/C=C/c2ccccc2)CC1 [Analog M-1656, Biot-OC2Y-tCip]		5.5
O=C(C=Cc1c(F)c(F)c(F)c(F)c1F)NC(Cc1ccc(F)cc1)C(=O)N1CCN(c2ccc(Cl)cc2)CC1 (stereo not drawn) [Analog M-1208, F5c-PFF-Cpp]	30	
O=C(N[C@H]1CN2CCC1CC2)C(Cc1ccc(OCc2c(Cl)cccc2Cl)cc1)NC(=O)C(c1ccccc1)C1CCCCC1 (single isomer, unassigned) [M-1548 #1]		4
CC1(C)CC(NC(=O)C(Cc2ccccc2)NC(=O)C=Cc2c(F)c(F)c(F)c(F)c2F)CC(C)(C)N1 (stereo not drawn) [Analog M-1178, F5c-Phe-Atmp]	15	
CC1(C)CC(NC(=O)C(Cc2cc(I)c(OCc3c(Cl)cccc3Cl)c(I)c2)NC(=O)C(=Cc2ccccc2)c2ccccc2)CC(C)(C)N1 (stereo not drawn) [Analog M-1760, Pcn-OCIY-Atmp]		2
COc1ccc2c(c1)c(CC(=O)NC(C(=O)NC1CC(C)(C)NC(C)(C)C1)C1Cc3ccccc3C1)c(C)n2C(=O)c1ccc(Cl)cc1 (stereo not drawn) [Analog M-1688, Indo-Igl-Atmp]		4
CC1(C)CC(NC(=O)C(Cc2ccc(C(F)(F)F)cc2)NC(=O)C=Cc2c(F)c(F)c(F)c(F)c2F)CC(C)(C)N1 (stereo not drawn) [Analog M-1146, F5c-F3MF-Atmp]	12	
CC1CN(C(=O)C(Cc2c(F)c(F)c(F)c(F)c2F)NC(=O)C=Cc2c(F)c(F)c(F)c(F)c2F)CC(C)N1 (stereo not drawn) [Analog M-1186, F5c-F5F-Dmpz]	11	
CC1(C)CC(NC(=O)C(Cc2ccc(OCc3c(Cl)cccc3Cl)cc2)NC(=O)OCC2c3ccccc3-c3ccccc32)CC(C)(C)N1 (stereo not drawn) [Analog M-1800, Fmoc-OC2Y-Atmp]		1.7
